Data: patent publication US12054447B2, “PCNA inhibitors” (City of Hope, priority 2015, dated 2024)

What was measured:
[1] = Liver microsome assay; type: in vitro ADME, human; details: human liver microsomes, NADPH
Excerpt: FIG. 11. AOH1160 stability in a liver microsome assay. Liver is a major organ responsible for drug metabolism. We tested the stability of AOH1160 in a liver microsome assay. By analyzing the metabolites, we determined a major pathway responsible for AOH1160 metabolism.
Liver is a major organ responsible for drug metabolism. We tested the stability of AOH1160 in a liver microsome assay (FIG. 11). By analyzing the metabolites, we determined a major pathway responsible for AOH1160 metabolism.

[2] = test system: PC-3; assay: NCI-60 panel test; type: cell-based; details: Homo sapiens; PC-3, NCI-60 5-dose study
Experimental: (§1) FIG. 7. NCI-60 panel test. The effect of AOH1160 on growth of the NCI-60 panel, which consists of 60 cancer cell lines representing 9 major cancer types, was tested in a 5-dose study. Shown are the Log IC50 values determined for each cell line. […] This study was performed by the National Institute of Cancer.
(§2) As observed in FIG. 7, the effect of AOH1160 on growth of the NCI-60 panel, which consists of 60 cancer cell lines representing 9 major cancer types, was tested in a 5-dose study. Shown are the Log IC50 values determined for each cell line.

[3] = test system: T-47D; assay: NCI-60 panel test; type: cell-based; details: Homo sapiens, T47D, NCI-60 5-dose study
Experimental: as §1, §2

[4] = test system: HCT-15; assay: NCI-60 panel test; type: cell-based; details: Homo sapiens; HCT-15, NCI-60 5-dose study
Experimental: as §1, §2

[5] = test system: NCI-H322M; assay: NCI-60 panel test; type: cell-based; details: Homo sapiens, NCI-60 5-dose study
Experimental: as §1, §2

[6] = test system: RPMI-8226; assay: NCI-60 panel test; type: cell-based; details: Homo sapiens; RPMI-8226, NCI-60 5-dose study
Experimental: as §1, §2

[7] = test system: HOP-92; assay: NCI-60 panel test; type: cell-based; details: Homo sapiens; HOP-92, NCI-60 5-dose study
Experimental: as §1, §2

[8] = test system: OVCAR-4; assay: NCI-60 panel test; type: cell-based; details: Homo sapiens; OVCAR-4, NCI-60 5-dose study
Experimental: as §1, §2

[9] = test system: DU-145; assay: NCI-60 panel test; type: cell-based; details: Homo sapiens; DU-145, NCI-60 5-dose study
Experimental: as §1, §2

[10] = test system: TK-10; assay: NCI-60 panel test; type: cell-based; details: Homo sapiens; TK-10, NCI-60 5-dose study
Experimental: as §1, §2

[11] = test system: HCC-2998; assay: NCI-60 panel test; type: cell-based; details: Homo sapiens; HCC-2998, NCI-60 5-dose study
Experimental: as §1, §2

[12] = test system: SN12C; assay: NCI-60 panel test; type: cell-based; details: Homo sapiens, NCI-60 5-dose study
Experimental: as §1, §2

[13] = test system: COLO 205; assay: NCI-60 panel test; type: cell-based; details: Homo sapiens
Experimental: as §1, §2

[14] = test system: IGROV1; assay: NCI-60 panel test; type: cell-based; details: Homo sapiens, IGROV-1; IGROV1, NCI-60 5-dose study
Experimental: as §1, §2

[15] = test system: SF-268; assay: NCI-60 panel test; type: cell-based; details: Homo sapiens
Experimental: as §1, §2

[16] = test system: UACC-62; assay: NCI-60 panel test; type: cell-based; details: Homo sapiens; UACC-62, NCI-60 5-dose study
Experimental: as §1, §2

[17] = test system: OVCAR-5; assay: NCI-60 panel test; type: cell-based; details: Homo sapiens; OVCAR-5, NCI-60 5-dose study
Experimental: as §1, §2

[18] = test system: MOLT-4; assay: NCI-60 panel test; type: cell-based; details: Homo sapiens; MOLT-4, NCI-60 5-dose study
Experimental: as §1, §2

[19] = test system: SK-OV-3; assay: NCI-60 panel test; type: cell-based; details: Homo sapiens; SK-OV-3, NCI-60 5-dose study
Experimental: as §1, §2

[20] = test system: OVCAR-8; assay: NCI-60 panel test; type: cell-based; details: Homo sapiens; OVCAR-8, NCI-60 5-dose study
Experimental: as §1, §2

[21] = test system: MCF7; assay: NCI-60 panel test; type: cell-based; details: Homo sapiens; MCF7, NCI-60 5-dose study
Experimental: as §1, §2

[22] = test system: HCT-116; assay: NCI-60 panel test; type: cell-based; details: Homo sapiens; HCT-116, NCI-60 5-dose study
Experimental: as §1, §2

[23] = test system: ACHN; assay: NCI-60 panel test; type: cell-based; details: Homo sapiens, NCI-60 5-dose study
Experimental: as §1, §2

[24] = test system: MALME-3M; assay: NCI-60 panel test; type: cell-based; details: Homo sapiens, NCI-60 5-dose study
Experimental: as §1, §2

[25] = test system: SW-620; assay: NCI-60 panel test; type: cell-based; details: Homo sapiens; SW-620, NCI-60 5-dose study
Experimental: as §1, §2

[26] = test system: RXF 393; assay: NCI-60 panel test; type: cell-based; details: Homo sapiens; RXF 393, NCI-60 5-dose study
Experimental: as §1, §2

[27] = test system: MDA-MB-231/ATCC; assay: NCI-60 panel test; type: cell-based; details: Homo sapiens, NCI-60 5-dose study
Experimental: as §1, §2

[28] = test system: EKVX; assay: NCI-60 panel test; type: cell-based; details: Homo sapiens, NCI-60 5-dose study
Experimental: as §1, §2

[29] = test system: MDA-MB-468; assay: NCI-60 panel test; type: cell-based; details: Homo sapiens; MDA-MB-468, NCI-60 5-dose study
Experimental: as §1, §2

[30] = test system: A549/ATCC; assay: NCI-60 panel test; type: cell-based; details: Homo sapiens, NCI-60 5-dose study
Experimental: as §1, §2

[31] = test system: SK-MEL-2; assay: NCI-60 panel test; type: cell-based; details: Homo sapiens; SK-MEL-2, NCI-60 5-dose study
Experimental: as §1, §2

[32] = test system: SF-295; assay: NCI-60 panel test; type: cell-based; details: Homo sapiens; SF-295, NCI-60 5-dose study
Experimental: as §1, §2

[33] = test system: HL-60(TB); assay: NCI-60 panel test; type: cell-based; details: Homo sapiens, NCI-60 5-dose study
Experimental: as §1, §2

[34] = test system: MDA-MB-435; assay: NCI-60 panel test; type: cell-based; details: Homo sapiens; MDA-MB-435, NCI-60 5-dose study
Experimental: as §1, §2

| SMILES | GI50 [2] [µM] | GI50 [3] [µM] | GI50 [4] [µM] | GI50 [5] [µM] | GI50 [6] [µM] | GI50 [7] [µM] | GI50 [8] [µM] | GI50 [9] [µM] | GI50 [10] [µM] | GI50 [11] [µM] | GI50 [12] [µM] | GI50 [13] [µM] | GI50 [14] [µM] | GI50 [15] [µM] | GI50 [16] [µM] | GI50 [17] [µM] | GI50 [18] [µM] | GI50 [19] [µM] | GI50 [20] [µM] | GI50 [21] [µM] | further results |
| --- | --- | --- | --- | --- | --- | --- | --- | --- | --- | --- | --- | --- | --- | --- | --- | --- | --- | --- | --- | --- | --- |
| O=C(CNC(=O)c1cccc2ccccc12)Nc1ccccc1Oc1ccccc1 [AOH1160] | 0.302 | 0.537 | 0.245 | 0.631 | 0.316 | 2.24 | 4.57 | 0.324 | 0.617 | 0.708 | 0.589 | 0.309 | 0.912 | 0.437 | 0.178 | 0.525 | 0.347 | 0.398 | 0.316 | 0.309 | metabolic pathway in liver microsomes [1]: mainly metabolized through mono- and di-hydroxylation in a NADPH-dependent manner; GI50 [22]: 0.324 µM; GI50 [23]: 0.832 µM; GI50 [24]: 10 µM; GI50 [25]: 0.282 µM; GI50 [26]: 0.186 µM; GI50 [27]: 0.977 µM; GI50 [28]: 0.776 µM; GI50 [29]: 0.324 µM; GI50 [30]: 0.457 µM; GI50 [31]: 0.269 µM; GI50 [32]: 0.251 µM; GI50 [33]: 0.269 µM; GI50 [34]: 0.0427 µM |
| O=C(CNC(=O)c1cccc2ccccc12)Nc1ccccc1Oc1cccc(O)c1 [PCNA2] | 7.08 | 9.77 | 3.16 | 10.7 | 8.13 | 25.1 | 25.1 | 9.55 | 25.1 | 25.1 | 25.1 | 14.8 | 10 | 20.9 | 1.62 | 25.1 | 4.9 | 12.9 | 11.5 | 4.47 | GI50 [22]: 1.38 µM; GI50 [23]: 17.4 µM; GI50 [24]: 5.89 µM; GI50 [25]: 3.09 µM; GI50 [26]: 4.17 µM; GI50 [27]: 17.8 µM; GI50 [28]: 8.91 µM; GI50 [29]: 3.55 µM; GI50 [30]: 9.55 µM; GI50 [31]: 25.1 µM; GI50 [32]: 2.19 µM; GI50 [33]: 1.32 µM; GI50 [34]: 0.759 µM |
| O=C(CNC(=O)c1cccc2ccccc12)Nc1ccccc1Oc1ccc(O)cc1 [PCNA1] | 1.32 | 1.55 | 0.912 | 1.15 | 0.977 | 25.1 | 2.82 | 1.15 | 17 | 8.91 | 2.19 | 0.794 | 2.34 | 3.31 | 1.17 | 6.31 | 1.2 | 1.58 | 1.32 | 0.851 | GI50 [22]: 0.977 µM; GI50 [23]: 1.86 µM; GI50 [25]: 0.912 µM; GI50 [26]: 0.501 µM; GI50 [27]: 3.16 µM; GI50 [28]: 1.17 µM; GI50 [29]: 0.55 µM; GI50 [30]: 1.48 µM; GI50 [31]: 25.1 µM; GI50 [32]: 0.617 µM; GI50 [33]: 0.708 µM; GI50 [34]: 0.162 µM |
| COc1ccc(Oc2ccccc2NC(=O)CNC(=O)c2cccc3ccccc23)cc1 [PCNA6] | 1.05 | 2.51 | 0.589 | 1.23 | 1.12 | 25.1 | 2.24 | 1.02 | 2.14 | 1.41 | 2.29 | 0.646 | 1.58 | 2.04 | 0.562 | 2 | 0.955 | 1.02 | 1.15 | 0.257 | GI50 [22]: 0.617 µM; GI50 [23]: 1.51 µM; GI50 [24]: 25.1 µM; GI50 [25]: 0.676 µM; GI50 [26]: 0.49 µM; GI50 [27]: 2.24 µM; GI50 [28]: 1.38 µM; GI50 [29]: 0.457 µM; GI50 [30]: 1.26 µM; GI50 [31]: 2.29 µM; GI50 [32]: 0.398 µM; GI50 [33]: 0.617 µM; GI50 [34]: 0.0832 µM |
